In patent publication US8470964B2, “Peptides derived from NCAM (FGLs)” (Enkam Pharmaceuticals A/S, priority 2007, dated 2013):
“And” between values parts separate entries of the source, which are not always exact repeats. Equal entries are not always repeated. “Also recorded” adds a separate entry of the source. Where no end group is shown, it is not given here.

Tests used:
Type in all cases: in vivo, rat
[1] = system: (25-35) β-amyloid peptide fragment induced cognitive deficits model in rats; assay: (25-35) β-amyloid induced cognitive deficits, intranasal administration, SRT; details: 1.28 mg/kg intranasally daily, 15 doses day 7 to 21; SRT 22 days after β-amyloid injection
Description: FIG. 9. Effects of intranasal administration of FGLs on the β-amyloid neurotoxicity induced deficit on performance in the Social Recognition Test. Rats received an intranasal administration of FGLs at the stated doses or vehicle daily at days 7 to 21 after i.c.v. administration of the (25-35) β-amyloid (A-β) fragment. 8-10 animals per group. Results are expressed as Means and SEM of Recognition Ratio and analyzed by one-sample t-test: **p<0.05.
In this study, the (25-35) β-amyloid peptide fragment induced cognitive deficits model in rats was used to investigate the dose-response (0.08, 0.32 or 1.28 mg/kg) effect of FGLs administered intranasally daily for 15 doses from day 7 to day 21 post β-amyloid peptide i.c.v. injection. The social memory performance was evaluated using the SRT, 22 days after the β-amyloid injection. A statistically significant impairment of short-term memory was observed as a consequence of the (25-35) β-amyloid neurotoxicity in the rats receiving the (25-35) β-amyloid fragment plus vehicle.

intact adult rats = assay: Social Recognition Test (SRT), short-term social memory, subcutaneous administration
Experimental: (§1) FIG. 3. Effects of a single administration of vehicle or of FGLs on short-term social memory as evaluated in the Social Recognition Test (SRT). FGLs (8.0 mg/kg) or vehicle (sterile water, 4.0 ml/kg) was administered s.c. and the rats were tested twice with the initial trial of SRT performed 1 h and 73 h after administration. The juvenile rat was presented twice with an inter-trial interval of 2 hours. In each experimental group data were obtained from 9 to 11 rats. Results are shown as Mean and SEM of recognition ratio (RR). […] Comparisons of RR values to a hypothetical value 0.50 were carried using one-sample t-test. **P<0.01.
as §1, with “4.” for “3.”, “(1.0, 2.0, 4.0 and 8.0” for “(8.0”, “24” for “73”
FIG. 5. Effects of subcutaneous administration of FGLs, FGLL and VEB1 (2 administrations at the stated doses) on short-term social memory as evaluated in the Social Recognition Test (SRT). Results are shown as Mean and SEM of recognition ratio (RR). […] Comparisons of RR values to a hypothetical value 0.50 were carried using one-sample t-test.
The activity of FGLs, administered subcutaneously, in enhancing social memory in intact adult rats was examined in three studies. In both studies the test system was the Social Recognition Test (SRT), which is a reliable test for the evaluation of compounds active on short-term memory (Dantzer et al., 1987). In our studies we used a protocol of SRT were a juvenile rat was presented to the test rat twice, with an inter-trial interval (ITI) of 2 hours between the two tests. […] In the first study the rats received a single subcutaneous dose (8.0 mg/kg) of FGLs and were tested 1 hour and 73 hours after administration.
In the second study the rats received a single subcutaneous dose of 1.0, 2.0, 4.0 or 8.0 mg/kg of FGLs and were tested 1 hour and 24 hours after administration.
In the third study the dose response effects (0.25, 0.80, 2.50 and 8.0 mg/kg) of subcutaneous administration of FGLs were tested. In parallel were also tested FGLL and VEB1, another truncated form of FGLL. The peptides were administered twice, 24 and 5 hours before the first SRT, and the rats were tested 5 hour and 77 hours after the last administration

[2] = system: scopolamine induced social amnesia model in adult rats; assay: Scopolamine induced social amnesia model (SRT); details: 8 mg/kg s.c. twice, 19 hours interval
Experimental: FIG. 7. Effects of subcutaneous administration of FGLL FGLs, and VEB1 (2 administrations with a 19 hours interval, at 8 mg/kg) on the scopolamine induced social amnesia as evaluated in the Social Recognition Test (SRT). The rats were tested with the initial trial of SRT performed 5 h after the last administration of peptide/vehicle and 30 minutes after scopolamine (0.01 mg/kg s.c.) administration. The juvenile rat was presented twice with an inter-trial interval of 15 minutes.
A—Recognition ratios (RR) of rats treated with scopolamine and vehicle (Veh) or scopolamine and one of the three peptides as detailed above. Results are shown as Mean and SEM of recognition ratio (RR). […] Comparisons of RR values to a hypothetical value 0.50 were carried out using one-sample t-test. In each experimental group data were obtained from 10 rats.
B—Cumulative investigation time (T1, in seconds) during the first trial of the SRT of rats treated with scopolamine and vehicle (Veh) or scopolamine and one of the three peptides as detailed above. Results are shown as Mean and SEM of T1. Comparison between groups were carried out by ANOVA followed by Dunnett Multiple Comparison Test. In each experimental group data were obtained from 10 rats.
FGLs was tested for efficacy in the scopolamine induced social amnesia model in adult rats (Van Kampen et al., 2004). […]

[3] = s.c., administered twice, 77 hours after the last administration

FGLs: two identical 11 amino acid peptides (VAENQQGKSKA), forming a dimer through a linker molecule (iminodiacetic acid); peptide amide (VAENQQGKSKA-NH2; not fully specified; also: dimer of two identical peptides through iminodiacetic acid linker, attachment site not given here)
deficit in social memory performance (SRT) compared with vehicle treated rats [1]: significant (p<0.01) amelioration of the deficit
duration of mnemotropic effects after administration (intact adult rats; s.c. administration, short-term social memory): at least 72 hours
minimum effective dose in SRT (intact adult rats; s.c., administered twice (24 and 5 hours before first SRT), 5 hours post administration, intact rats): 0.80 mg/kg and 0.8 mg/kg
dose with significant social memory enhancing effect in SRT (intact adult rats; [3]): 2.50 mg/kg
social memory enhancing effect in SRT (intact adult rats; [3]): Significant memory enhancing effects
memory enhancing effect in SRT (recognition ratio) (intact adult rats; single s.c. dose 8.0 mg/kg, tested 1 hour after administration, inter-trial interval 2 hours): significant memory enhancing effect
memory enhancing effect in SRT (recognition ratio) (intact adult rats; single s.c. dose 8.0 mg/kg, tested 73 hours after administration, inter-trial interval 2 hours): tendency to significance (p=0.06)
memory enhancing effect in SRT (recognition ratio) (intact adult rats; single s.c. dose 2.0, 4.0 and 8.0 mg/kg, 1 hour post administration): significant memory enhancing effect
memory enhancing effect in SRT (recognition ratio) (intact adult rats; single s.c. dose 4.0 and 8.0 mg/kg, 24 hours after administration): significant memory enhancing effect
cumulative investigation time at the first encounter (T1) versus scopolamine and vehicle ([2]; scopolamine 0.01 mg/kg s.c.): significantly longer T1 than rats treated with vehicle; also recorded: significant difference in the cumulative investigation time at the first encounter
recognition ratio (RR) versus theoretical value 0.5 in scopolamine treated rats ([2]; test 5 h after last dose, 30 minutes after scopolamine 0.01 mg/kg s.c.): Significant effects against scopolamine induced social amnesia; also recorded: RR significantly different from the theoretical value of 0.5
